# Measured values: patent publication EP4620959A1, “CYCLIC COMPOUNDS USED AS MULTI-TARGET KINASE INHIBITORS AND PREPARATION METHOD THEREFOR” (Shanghai Institute of Organic Chemistry, Chinese Academy of …, priority 2022, dated 2024)
# How the values were obtained:
# Format in all cases: biochemical
# [1] = target: LRRK2 wt (Homo sapiens, UniProt Q5S007); assay: Kinase activity inhibition assay (ADP-Glo), LRRK2 wt; details: for inhibition at 0.1 µM: read-out: LRRK2 wt inhibition rate at 100 nM, ATP 20 µM, compound at 100 nM; for inhibition at 0.3 µM: read-out: LRRK2 wt inhibition rate @300 nM, ATP 20 µM, compound at 300 nM
# Procedure: (§1) The kinase activity inhibition assay was performed by ICE Bioscience (Beijing) using ADP-Glo and HTRF methods.
# (§2) Table 1.1-1 ADP-Glo Buffer
# (§3) Table 1.2-1 ADP-Glo Kinase and Substrate Formulation
# (§4) SD is the standard error, and AVE is the average value. Table 2-1 LRRK2 Activity Inhibition Test Results
# [2] = target: LRRK2 G2019S (Homo sapiens, UniProt Q5S007, G2019S); assay: Kinase activity inhibition assay (ADP-Glo), LRRK2 G2019S; details: for inhibition at 0.1 µM: read-out: LRRK2 G2019S inhibition rate at 100 nM, ATP 100 µM, compound at 100 nM
# Procedure: as §1, §2, §3, §4
# [3] = target: FGFR4 (Homo sapiens, UniProt P22455); assay: Kinase activity inhibition assay (HTRF), FGFR4; details: ATP 50 µM
# Procedure: as §1
# (§5) Table 1.2-2 HTRF Kinase and Substrate Formulation
# (§6) • 1) 2×ATP/substrate solution and 2×kinase/metal ion solution were prepared using kinase reaction buffer; • 2) 20 nL (ADP-GLo) or 40 nL (HTRF) of compound dilution was transferred using Echo 655 onto a 384-well assay plate; after centrifugation, 2 µL of 2×kinase and metal ion solution were added to the 384-well assay plate, centrifuged at 1000 rpm for 1 min, and incubated at 25°C for 10 min; • 3) 2 µL of 2×substrate and ATP solution were added to the 384-well assay plate, centrifuged at 1000 rpm for 1 min, and incubated at 25°C for 60 min. • 4) 4 µL of ADP-Glo was transferred to the 384-well assay plate, entrifuged at 1000 rpm for 1 min, and incubated at 25°C for 40 min. • 5) 8 µL of detection solution was transferred to the 384-well assay plate, centrifuged at 1000 rpm for 1 min, and incubated at 25°C for 40 min. • 6) Luminescence signals was read using a multifunctional microplate reader.
# as §4
# [4] = target: FGFR4 N535K (Homo sapiens, UniProt P22455, N535K); assay: Kinase activity inhibition assay (HTRF), FGFR4 N535K; details: ATP 100 µM
# Procedure: as §1, §5, §6, §4
# LRRK2 wt, sequence (Q5S007 whole entry): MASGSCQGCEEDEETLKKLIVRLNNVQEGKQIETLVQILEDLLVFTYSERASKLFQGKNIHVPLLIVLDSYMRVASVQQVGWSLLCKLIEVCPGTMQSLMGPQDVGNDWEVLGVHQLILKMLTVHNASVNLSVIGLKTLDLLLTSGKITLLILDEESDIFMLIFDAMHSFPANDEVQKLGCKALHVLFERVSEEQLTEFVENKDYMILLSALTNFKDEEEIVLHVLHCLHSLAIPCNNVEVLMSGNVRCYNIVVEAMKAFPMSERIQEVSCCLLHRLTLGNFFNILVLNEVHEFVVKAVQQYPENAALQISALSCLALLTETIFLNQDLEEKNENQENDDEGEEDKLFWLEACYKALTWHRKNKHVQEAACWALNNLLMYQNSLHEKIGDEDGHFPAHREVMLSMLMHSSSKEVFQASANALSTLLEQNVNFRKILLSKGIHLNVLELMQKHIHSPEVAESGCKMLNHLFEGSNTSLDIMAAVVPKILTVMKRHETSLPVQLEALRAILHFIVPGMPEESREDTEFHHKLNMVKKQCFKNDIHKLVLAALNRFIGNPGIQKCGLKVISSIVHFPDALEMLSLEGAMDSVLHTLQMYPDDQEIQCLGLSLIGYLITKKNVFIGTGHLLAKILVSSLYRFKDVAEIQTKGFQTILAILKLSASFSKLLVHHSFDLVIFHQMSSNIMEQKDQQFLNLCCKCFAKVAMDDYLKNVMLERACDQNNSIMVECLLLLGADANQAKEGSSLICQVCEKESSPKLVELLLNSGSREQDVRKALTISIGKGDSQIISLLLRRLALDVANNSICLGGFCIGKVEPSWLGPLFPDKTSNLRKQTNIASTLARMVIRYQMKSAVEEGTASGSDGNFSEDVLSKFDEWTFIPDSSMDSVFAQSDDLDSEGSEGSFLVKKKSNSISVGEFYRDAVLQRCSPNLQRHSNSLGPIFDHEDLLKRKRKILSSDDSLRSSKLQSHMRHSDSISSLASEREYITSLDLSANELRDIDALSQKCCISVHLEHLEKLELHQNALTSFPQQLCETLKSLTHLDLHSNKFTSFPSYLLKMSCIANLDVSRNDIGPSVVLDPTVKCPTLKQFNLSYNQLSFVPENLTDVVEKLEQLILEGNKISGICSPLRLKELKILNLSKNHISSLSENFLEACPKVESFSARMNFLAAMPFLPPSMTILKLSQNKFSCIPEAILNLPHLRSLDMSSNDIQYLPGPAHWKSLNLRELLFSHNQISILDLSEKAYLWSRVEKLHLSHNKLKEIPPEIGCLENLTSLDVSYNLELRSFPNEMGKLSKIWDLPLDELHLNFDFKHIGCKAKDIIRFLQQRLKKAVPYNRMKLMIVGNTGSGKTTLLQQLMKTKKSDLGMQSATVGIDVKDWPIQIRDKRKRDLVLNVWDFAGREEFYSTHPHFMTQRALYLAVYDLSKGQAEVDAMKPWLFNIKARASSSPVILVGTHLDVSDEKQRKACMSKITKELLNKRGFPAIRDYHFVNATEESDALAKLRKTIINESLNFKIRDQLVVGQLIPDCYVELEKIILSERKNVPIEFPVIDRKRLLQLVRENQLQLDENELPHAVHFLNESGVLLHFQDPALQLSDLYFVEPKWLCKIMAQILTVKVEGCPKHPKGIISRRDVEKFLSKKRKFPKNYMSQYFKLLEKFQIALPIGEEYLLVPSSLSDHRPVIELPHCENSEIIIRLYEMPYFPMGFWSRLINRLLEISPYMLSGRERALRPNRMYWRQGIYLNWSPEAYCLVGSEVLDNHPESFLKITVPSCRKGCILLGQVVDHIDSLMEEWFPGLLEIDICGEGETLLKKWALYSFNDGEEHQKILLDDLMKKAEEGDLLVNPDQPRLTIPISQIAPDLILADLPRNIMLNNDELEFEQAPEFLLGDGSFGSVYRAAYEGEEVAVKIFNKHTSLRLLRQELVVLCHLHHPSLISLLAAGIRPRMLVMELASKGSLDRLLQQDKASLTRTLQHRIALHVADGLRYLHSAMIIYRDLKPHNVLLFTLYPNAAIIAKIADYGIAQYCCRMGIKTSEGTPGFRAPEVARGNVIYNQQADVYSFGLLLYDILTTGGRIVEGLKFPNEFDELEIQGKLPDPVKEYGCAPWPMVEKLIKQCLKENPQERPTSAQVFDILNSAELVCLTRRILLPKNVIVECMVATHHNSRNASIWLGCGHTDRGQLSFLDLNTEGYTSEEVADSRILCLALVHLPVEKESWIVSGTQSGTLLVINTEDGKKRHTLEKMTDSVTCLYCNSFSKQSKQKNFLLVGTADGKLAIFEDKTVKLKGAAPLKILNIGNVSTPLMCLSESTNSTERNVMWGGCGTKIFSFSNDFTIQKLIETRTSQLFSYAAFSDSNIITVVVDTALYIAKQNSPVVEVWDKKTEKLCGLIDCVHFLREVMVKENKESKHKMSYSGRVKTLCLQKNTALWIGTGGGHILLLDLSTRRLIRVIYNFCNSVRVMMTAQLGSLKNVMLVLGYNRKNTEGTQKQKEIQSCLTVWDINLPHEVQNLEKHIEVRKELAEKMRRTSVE
# LRRK2 G2019S, sequence (Q5S007 whole entry G2019S): as the sequence (Q5S007 whole entry) above, with G2019S counted along it
# FGFR4, sequence (P22455 22-802): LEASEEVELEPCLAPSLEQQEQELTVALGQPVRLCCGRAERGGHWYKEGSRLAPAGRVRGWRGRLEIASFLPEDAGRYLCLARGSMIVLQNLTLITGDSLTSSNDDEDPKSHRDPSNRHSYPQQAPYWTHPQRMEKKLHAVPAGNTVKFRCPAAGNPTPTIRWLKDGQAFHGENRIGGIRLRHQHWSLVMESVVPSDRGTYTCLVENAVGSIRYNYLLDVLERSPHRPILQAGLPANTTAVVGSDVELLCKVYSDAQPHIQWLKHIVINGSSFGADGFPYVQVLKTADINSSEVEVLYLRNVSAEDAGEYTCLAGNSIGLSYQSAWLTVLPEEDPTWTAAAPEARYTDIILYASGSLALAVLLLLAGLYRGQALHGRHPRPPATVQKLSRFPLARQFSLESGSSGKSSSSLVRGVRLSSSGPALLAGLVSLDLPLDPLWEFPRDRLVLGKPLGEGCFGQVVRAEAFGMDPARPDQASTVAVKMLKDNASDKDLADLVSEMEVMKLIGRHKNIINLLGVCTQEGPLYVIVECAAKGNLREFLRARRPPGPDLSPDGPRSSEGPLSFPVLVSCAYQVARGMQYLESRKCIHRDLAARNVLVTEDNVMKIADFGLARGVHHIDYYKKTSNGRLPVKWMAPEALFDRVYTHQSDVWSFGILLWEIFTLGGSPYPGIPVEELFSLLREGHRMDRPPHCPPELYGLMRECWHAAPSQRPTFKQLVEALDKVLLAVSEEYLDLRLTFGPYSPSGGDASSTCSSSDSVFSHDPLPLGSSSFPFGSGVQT
# FGFR4 N535K, sequence (P22455 22-802 N535K): as the sequence (P22455 22-802) above, with N514K counted along it
Compound,inhibition at 0.1 µM [1] [%],inhibition at 0.1 µM [2] [%],other results
"CN1CCCNc2nc(ncc2C(F)(F)F)Nc2cn(nc2C2CC2)C2CC2C1=O (racemic) [Example T-10, (1^1R,1^2S,2^1R,E)-2^3-Cyclopropyl-9-methyl-4^5-(trifluoromethyl)-2^1H-3,5,9-triaza-4(2,4)-pyrimidina-2(1,4)-pyrazola-1(1,2)-cyclopropacyclodecan-10-one]",94,92,–
"O=C1NCCCNc2nc(ncc2C(F)(F)F)Nc2cn(nc2C2CC2)C2CC12 (racemic) [Example T-11, (1^1R,1^2R,2^1S,E)-2^3-Cyclopropyl-4^5-(trifluoromethyl)-2^1H-3,5,9-triaza-4(2,4)-pyrimidina-2(1,4)-pyrazola-1(1,2)-cyclopropacyclodecan-10-one]",89,90,–
C=CC(=O)N[C@H]1CCOC[C@H]1Nc1ncc2cc(-c3c(Cl)c(OC)cc(OC)c3Cl)ccc2n1 [BLU554],–,–,IC50 [3]: 2.98 nM; IC50 [4]: 42.5 nM
CNc1nc(Nc2cn(C(C)(C)C#N)nc2C)ncc1C(F)(F)F [DNL-201],–,–,IC50 ([1]; ATP 20 µM): 1.27 nM; IC50 ([2]; ATP 100 µM): 2.88 nM
"Cc1nn2cc1Nc1ncc(C(F)(F)F)c(n1)NCCCNC(=O)C2 [Example T-14, (E)-3^3-Methyl-1^5-(trifluoromethyl)-3^1H-2,6,10-triaza-1(2,4)-pyrimidina-3(4,1)-pyrazolacyclodecan-5-one]",87,84,–
"Cc1nn2cc1Nc1ncc(C(F)(F)F)c(n1)NCCNC(=O)C2 [Example T-15, (E)-3^3-Methyl-1^5-(trifluoromethyl)-3^1H-2,6,9-triaza-1(2,4)-pyrimidina-3(4,1)-pyrazolacyclononan-5-one]",–,-9.6,inhibition at 0.3 µM [1]: 5%
"Cc1nn2cc1Nc1ncc(C(F)(F)F)c(n1)NCCC(C)(C)NC(=O)C2(C)C [Example T-39, (E)-3^3,4,4,7,7-Pentamethyl-1^5-(trifluoromethyl)-3^1H-2,6,10-triaza-1(2,4)-pyrimidina-3(4,1)-pyrazolacyclodecan-5-one]",28.9,–,–
"Cc1nn2cc1Nc1ncc(C(F)(F)F)c(n1)NC/C=C/CNC(=O)C2(C)C [Example T-40, (3^4E,8E)-3^3,4,4-Trimethyl-1^5-(trifluoromethyl)-3^1H-2,6,11-triaza-1(2,4)-pyrimidina-3(4,1)-pyrazolylundecapentaene-5-one]",56.1,–,–
"Cc1nn2cc1Nc1ncc(C(F)(F)F)c(n1)N[C@H]1CC[C@H](CC1)NC(=O)C2(C)C [Example T-41, (5^1s,5^4s,E)-1^3,8,8-Trimethyl-3^5-(trifluoromethyl)-1^1H-2,4,6-triaza-3(2,4)-pyrimidina-1(4,1)-pyrazola-5(1,4)-cyclohexacyclooctan-7-one]",20.8,–,–
"Cc1nn2cc1Nc1ncc(C(F)(F)F)c(n1)NC1CCCC(C1)NC(=O)C2(C)C (stereo not drawn) [Example T-42, (5^3R,E)-1^3,8,8-Trimethyl-3^5-(trifluoromethyl)-1^1H-2,4,6-triaza-3(2,4)-pyrimidina-1(4,1)-pyrazola-5(1,3)-cyclohexacyclooctan-7-one]",–,–,"LRRK2 wt inhibition rate at 100 nM ([1]; ATP 20 µM, compound at 100 nM): 42.08%@100 nM"
"Cc1nn2cc1Nc1ncc(C(F)(F)F)c(n1)NCC(F)(F)COC(=O)C2(C)C [Example T-43, (E)-8,8-Difluoro-3^3,4,4-trimethyl-1^5-(trifluoromethyl)-3^1H-6-oxa-2,10-diaza-1(2,4)-pyrimidina-3(4,1)-pyrazolacyclodecan-5-one]",64.6,–,–
"Cc1nn2cc1Nc1ncc(C(F)(F)F)c(n1)NCC1(CC1)CNC(=O)C2(C)C [Example T-44, (E)-3',4',4'-Trimethyl-5'-(trifluoromethyl)spiro[cyclopropane-8'-2,6,10-triaza-1(2,4)-pyrimidina-3(4,1)-pyrazolacyclodecan]-5'-one]",56.8,–,–
"Cc1nn2cc1Nc1ncc(C(F)(F)F)c(n1)NC(C)(C)CCNC(=O)C2(C)C [Example T-45, (E)-3^3,4,4,9,9-Pentamethyl-1^5-(trifluoromethyl)-3^1H-2,6,10-triaza-1(2,4)-pyrimidina-3(4,1)-pyrazolacyclodecan-5-one]",-1.97,–,–

# The next lines start with results.
inhibition at 0.1 µM [1] [%],inhibition at 0.1 µM [2] [%],Compound,other results
92,88,"Cc1nn2cc1Nc1ncc3c(Cl)cn(c3n1)CCCNC(=O)C2(C)C [Example T-6, (E)-1^5-Chloro-3^3,4,4-trimethyl-1^7H,3^1H-2,6-diaza-1(2,7)-pyrrolo[2,3-d]pyrimidine-3(4,1)-pyrazolacyclononan-5-one]",–
–,4.3,"Cc1nn2cc1Nc1ncc3c(Cl)cn(c3n1)CCCN(C)C(=O)C2(C)C [Example T-7, (E)-1^5-Chloro-3^3,4,4,6-tetramethyl-1^7H,3^1H-2,6-diaza-1(2,7)-pyrrolo[2,3-d]pyrimidine-3(4,1)-pyrazolacyclononan-5-one]",inhibition at 0.3 µM [1]: 7%
64,52,"Cc1nn2cc1Nc1ncc3c(Cl)nn(c3n1)CCCNC(=O)C2(C)C [Example T-8, (E)-1^3-Chloro-3^3,4,4-trimethyl-1^1H,3^1H-2,6-diaza-1(6,1)pyrazolo[3,4-d]pyrimidine-3(4,1)-pyrazolacyclononan-5-one]",–
5.7,–,"Cc1nn2cc1Nc1ncc(C(F)(F)F)c(n1)NCCNC(=O)C2(C)C [Example T-12, (E)-3^3,4,4-Trimethyl-1^5-(trifluoromethyl)-3^1H-2,6,9-triaza-1(2,4)-pyrimidina-3(4,1)-pyrazolacyclononan-5-one]","inhibition at 0.3 µM ([2]; read-out: LRRK2 G2019S inhibition rate @300 nM, ATP 100 µM, compound at 300 nM): 0.34%"
96,92,"Cc1nn2cc1Nc1ncc(C(F)(F)F)c(n1)NCCCCNC(=O)C2(C)C [Example T-13, (E)-3^3,4,4-Trimethyl-1^5-(trifluoromethyl)-3^1H-2,6,11-triaza-1(2,4)-pyrimidina-3(4,1)-pyrazolacycloundecan-5-one]",–
95.1,–,"Cc1nn2cc1Nc1ncc(C(F)(F)F)c(n1)NC(C)CCNC(=O)C2(C)C (stereo not drawn) [Example T-46, (E)-3^3,4,4,9-Tetramethyl-1^5-(trifluoromethyl)-3^1H-2,6,10-triaza-1(2,4)-pyrimidina-3(4,1)-pyrazolacyclodecan-5-one]",–
